For one test, the system named is AMAPA. Put plainly: Greenhouse test, post-emergence (PO) application, foliar effect. Conditions: AMAPA resistant - group B (TSR), C1 (TSR) and G (NTR), (A) 50, (B) 20, mixture 50 + 20 g of AS/ha, 3 weeks after application. In kind it is in vivo, Amaranthus palmeri. The source says: (§1) The 1:1 mixture of the two soil types was used specifically for cultivating small-seeded dicotyledonous weed since the standard field soil on its own tends to silt up, which may have an adverse effect on the emergence of small-seeded weeds. The resistances mentioned in the tables were confirmed beforehand in standard monitoring experiments. Nevertheless, the origins examined may have additional, hitherto unconfirmed resistances to various mechanisms of action.
(§2) The pots were then cultivated in a greenhouse (12-16 h light, temperature day 20-22° C., night 15-18° C.) until the time of application. The pots were treated at various BBCH stages of the seeds/plants on a laboratory track sprayer with spray liquors comprising the compositions according to the invention, mixtures of the prior art or the individual components. Application of the active compounds or active compound combinations and wetting agents formulated as WG, WP, EC or otherwise was carried out at the appropriate growth stages of the plants. The amount of water used for spray application was 100-600 l/ha. After the treatment, the plants were returned to the greenhouses and fertilized and watered as required. The pots were cultivated in a greenhouse (12-16 h light, temperature day 20-22° C., night 15-18° C.).
(§3) 3 weeks after the application, the foliar effect was evaluated on a scale of 0-100%:
(§4) 0%=no noticeable effect compared to untreated plants
(§5) 100%=full effect compared to untreated plants
(§6) The following abbreviations were used: • BBCH the BBCH code provides information about the morphological development stage of a plant. Officially, the abbreviation denotes the Biologische Bundesanstalt, Bundessortenamt and CHemische Industrie [Federal Biological Institute for Agriculture and Forestry, Federal Office for Crop Plant Varieties, Chemical Industry]. The range of BBCH 00-10 denotes the germination stages of the seeds until surface penetration. The range of BBCH 11-25 denotes the leaf development stages until stocking (corresponds to the number of tillers or side-shoots). • PE pre-emergence soil application; BBCH of the seeds/plants 00-10 • PO post-emergence application on the green parts of the plants; BBCH of the plants 11-25 • IU soil loamy silt—standard field soil • l/ha liters per hectare • S sensitive—the weed populations are sensitive to the active compounds tested • TSR target-site resistance. The weed populations comprise biotypes having a site-of-action-specific resistance, i.e. the binding site at the site of action is modified as a result of natural mutations in the gene sequence so that the active compounds are no longer able to bind, or bind in an unsatisfactory manner, and are therefore no longer able to act. • NTR non-target-site herbicide resistance; this is differentiated, inter alia, into EMR (Enhanced Metabolic Resistance) (the weed populations comprise biotypes having metabolic resistance, i.e. the plants are capable of metabolizing the active compounds more quickly via enzyme complexes, i.e. the active compounds are degraded more quickly in the plant), into reduced penetration into the plant, reduced translocation in the plant, accelerated excretion. […]

The subject of another test is EPHHL. The test is described as above. In kind it is in vivo, Euphorbia heterophylla. Conditions: (A) 50, (B) 20, mixture 50 + 20 g of AS/ha, 3 weeks after application.
Excerpt: as §1, §2, §3, §4, §5, §6

Test [1] concerns ERICA. Described as above. In kind it is in vivo, Erigeron canadensis. As to conditions: (A) 50, (B) 20, mixture 50 + 20 g of AS/ha, 3 weeks after application.
Excerpt: as §1, §2, §3, §4, §5, §6

In the next test the test system is APESV. Nature of the test: Greenhouse test, pre-emergence (PE) soil application. In kind it is in vivo, Apera spica-venti. Set-up: key: % effect: 0 = no effect, 100 = full effect vs untreated. As to conditions: group (B) compound alone, 20 g of AS/ha.
Excerpt: as §1, §2, §3, §4, §5, §6

A further test concerns LOLSS. The test is described as above. Set-up: key: % effect: 0 = no effect, 100 = full effect vs untreated plants. As to conditions: group (B) compound alone, 20 g of AS/ha. The test is classed as in vivo, Lolium spp.
Excerpt: as §1, §2, §3, §4, §5, §6

For the next test, the system named is CHEAL. The description is as above. The test is classed as in vivo, Chenopodium album. Set-up: key: % effect: 0 = no effect, 100 = full effect vs untreated. Conditions: group (B) compound alone, 20 g of AS/ha.
Excerpt: as §1, §2, §3, §4, §5, §6

Test [2] concerns ERICA. Described as above. In kind it is in vivo, Erigeron canadensis. Conditions: group (B) compound alone, 20 g of AS/ha. Set-up: key: % effect: 0 = no effect, 100 = full effect vs untreated.
Excerpt: as §1, §2, §3, §4, §5, §6

The next test relates to ERIBO. The test is described as above. The test is classed as in vivo, Erigeron bonariensis. Set-up: key: % effect: 0 = no effect, 100 = full effect vs untreated. Conditions: group (B) compound alone, 20 g of AS/ha.
Excerpt: as §1, §2, §3, §4, §5, §6

The test system of test [3] is TTTTT (all resistant and sensitive biotypes). Nature of the test: Greenhouse test, PE application, mean over all resistant and sensitive biotypes. In kind it is in vivo. Conditions: (A) 12.5, (B) 20, mixture 12.5 + 20 g of AS/ha; for TTTTT resistant mean (effect): mean of resistant biotypes (n = 16); for TTTTT sensitive mean (effect): mean of sensitive biotypes (n = 11).
Excerpt: as §1, §2, §3, §4, §5, §6

Setting [4] is: EPHHL resistant - group B (TSR) and G (NTR).
[5] abbreviates: EPHHL resistant - group B (TSR).
The mark [6] stands for this setting: ERICA resistant - group B (NA) and G (NTR).

With `CCS(=O)(=O)c1cccnc1S(=O)(=O)NC(=O)Nc1nc(OC)cc(OC)n1` [(B3), rimsulfuron], in the test with AMAPA, the foliar effect turned out to be 70%. In addition, in the test on EPHHL (setting [4]), the foliar effect was determined as 50%. For the same molecule, the foliar effect with EPHHL (setting [5]) was 60%. Besides, the foliar effect in the test with EPHHL (EPHHL sensitive) was found to be 80%. Moreover, in the test with ERICA [1] (setting [6]), the foliar effect is 60%. Further, the foliar effect in the test with ERICA [1] (ERICA sensitive) is given as 90%. Besides, in the test with APESV, the “effect on APESV resistant - group B (TSR, NTR) and K1/3 (NA)” value (shortened to “effect on APESV resistant - group B”) was found to be 35; the “effect on APESV sensitive” value worked out at 93. In the test with LOLSS, the “effect on LOLSS resistant - group G (NTR)” value (shortened to “effect … - group G (NTR)”) was 60; the “effect on LOLSS resistant group A (TSR, NTR), B (NTR) and C2 (NA)” value (“effect … (NTR) and C2 (NA)” below) stood at 50; the “effect on LOLSS resistant group A (TSR, NTR), B (TSR, NTR) and C2 (NA)” value (“effect … (TSR, NTR) and C2 (NA)” below) is 50; the “effect on LOLSS sensitive” value stood at 70. Besides, in the test on CHEAL, the “effect on CHEAL resistant - group B (TSR), C1 (NA) and G (NTR)” value (“effect on CHEAL resistant - group B” for short) was determined as 45; the “effect on CHEAL sensitive” value was found to be 85. Further, in the test on ERICA [2], the “effect on ERICA resistant - group B (NA) and G (NTR)” value (from here on “effect on ERICA resistant - group B”) turned out to be 0; the “effect on ERICA sensitive” value turned out to be 70. In the test with ERIBO, the “effect on ERIBO resistant - group B (NA) and G (NTR)” value (from here on “effect on ERIBO resistant - group B”) is reported as 0; the “effect on ERIBO sensitive” value is 70. For the same molecule, in [3], the “TTTTT resistant mean (effect)” value was 24% and the “TTTTT sensitive mean (effect)” value is recorded as 75%.
Consider `COc1cc(OC)nc(NC(=O)NS(=O)(=O)c2cc(NC=O)ccc2C(=O)N(C)C)n1` [(B2), foramsulfuron], for which the foliar effect in the test on AMAPA was 40%. Further, the foliar effect with EPHHL (setting [4]) came out at 40%. In addition, the foliar effect in the test with EPHHL (setting [5]) is given as 30%. Also, the foliar effect in the test with EPHHL (EPHHL sensitive) was found to be 80%. The foliar effect in the test with ERICA [1] (setting [6]) is reported as 40%. Besides, the foliar effect in the test on ERICA [1] (ERICA sensitive) is given as 50%. Moreover, in the test on APESV, the “effect on APESV resistant - group B” value amounted to 20; the “effect on APESV sensitive” value came out at 95. Further, in the test on LOLSS, the “effect … - group G (NTR)” value is 65; the “effect … (NTR) and C2 (NA)” value is 80; the “effect … (TSR, NTR) and C2 (NA)” value was 60; the “effect on LOLSS sensitive” value worked out at 78. For the same molecule, in the test on CHEAL, the “effect on CHEAL resistant - group B” value amounted to 40; the “effect on CHEAL sensitive” value was determined as 80. Moreover, in the test on ERICA [2], the “effect on ERICA resistant - group B” value is on record as 0; the “effect on ERICA sensitive” value is 100. In addition, in the test on ERIBO, the “effect on ERIBO resistant - group B” value was 0; the “effect on ERIBO sensitive” value worked out at 100. For the same molecule, in test [3], the “TTTTT resistant mean (effect)” value was determined as 22% and the “TTTTT sensitive mean (effect)” value amounted to 73%.
With `COc1cc(OC)nc(NC(=O)NS(=O)(=O)c2ncccc2C(F)(F)F)n1` [(B1), flazasulfuron], in the test on AMAPA, the foliar effect came to 40%. For the same molecule, the foliar effect in the test with EPHHL (setting [4]) is 40%. The foliar effect with EPHHL (setting [5]) is 30%. Moreover, the foliar effect with EPHHL (EPHHL sensitive) worked out at 80%. The foliar effect in the test on ERICA [1] (setting [6]) is 50%. The foliar effect in the test on ERICA [1] (ERICA sensitive) is reported as 90%. Further, in the test with APESV, the “effect on APESV resistant - group B” value is reported as 40; the “effect on APESV sensitive” value is on record as 85. In the test with LOLSS, the “effect … - group G (NTR)” value worked out at 80; the “effect … (NTR) and C2 (NA)” value was 70; the “effect … (TSR, NTR) and C2 (NA)” value is listed as 70; the “effect on LOLSS sensitive” value was determined as 70. Further, in the test on CHEAL, the “effect on CHEAL resistant - group B” value is recorded as 60; the “effect on CHEAL sensitive” value is listed as 88. Further, in the test on ERICA [2], the “effect on ERICA resistant - group B” value came out at 0; the “effect on ERICA sensitive” value is recorded as 70. For the same molecule, in the test on ERIBO, the “effect on ERIBO resistant - group B” value is on record as 0; the “effect on ERIBO sensitive” value was 70. In [3], the “TTTTT resistant mean (effect)” value came out at 32% and the “TTTTT sensitive mean (effect)” value was found to be 75%.
